The values that follow come from PubChem BioAssay AID1259375 (The Scripps Research Institute Molecular Screening Center, 2018).

The structures appear in SMILES notation. Calls of active or inactive are those of the source. The rule behind the calls is not given here.

For the test, the target named is Microphthalmia-associated transcription factor (Homo sapiens) (UniProt O75030). Description: MITF inhibitors by FRET titration, dose response, biochemical, high throughput (AID 1259375).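 Note: FRET between CFP-tagged and YFP-tagged MITF protein partners.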 The settings on record: FRET biochemical assay, MITF inhibition.
Sequence of Microphthalmia-associated transcription factor (Homo sapiens) (O75030 whole entry, looked up): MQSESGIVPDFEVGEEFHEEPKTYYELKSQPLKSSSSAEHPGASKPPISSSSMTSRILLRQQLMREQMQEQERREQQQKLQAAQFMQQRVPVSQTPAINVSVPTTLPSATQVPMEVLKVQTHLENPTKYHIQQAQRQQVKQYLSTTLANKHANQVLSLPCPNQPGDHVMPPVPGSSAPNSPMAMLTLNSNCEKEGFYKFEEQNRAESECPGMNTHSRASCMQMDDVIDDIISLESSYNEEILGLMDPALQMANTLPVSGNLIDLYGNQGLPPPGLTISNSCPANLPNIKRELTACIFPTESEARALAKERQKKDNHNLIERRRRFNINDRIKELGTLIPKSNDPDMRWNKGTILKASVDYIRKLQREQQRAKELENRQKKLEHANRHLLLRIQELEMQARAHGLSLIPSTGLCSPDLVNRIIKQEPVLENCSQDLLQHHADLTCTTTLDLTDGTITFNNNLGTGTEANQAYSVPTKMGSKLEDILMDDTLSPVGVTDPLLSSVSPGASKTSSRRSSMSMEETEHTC

As a reminder, the IC50 is the point on the concentration scale where inhibition reaches its midpoint. In the case of `Cc1ccc(-c2ncn(-c3ccc(Nc4cc(-n5cnc(Nc6ccccc6)n5)c(F)cn4)cc3)n2)cn1`, the IC50 is > 6.48 µM (inactive).
`Cc1cc2c(c(=O)[nH]1)C(=O)O/C2=C\c1ccc(C)o1`: the IC50 was > 6.86 µM (inactive).
For `O=C(/C=C/c1ccco1)NCc1cccc(CNC(=O)/C=C/c2ccco2)c1`, the IC50 was > 6.48 µM (inactive).
In the case of `O=C(NC1CCCCC1)N1CCN2C(=O)[C@H]3CCCN3C(=O)[C@H]2C1`, the IC50 was > 6.48 µM (inactive).
Take `N#Cc1cc([N+](=O)[O-])ccc1NC(=O)COC(=O)c1cc(-c2ccco2)nc2ccccc12`: the IC50 is > 7.03 µM (inactive).
With `COc1cc(OC)c(CN2CCCC(O)C2)cc1Br` (stereo unspecified), the IC50 is > 6.48 µM (inactive).
In the case of `Cn1nnc(-c2ccc(Nc3nccc(-c4ccc5nc(C6CC6)[nH]c(=O)c5c4)n3)cc2)n1`, the IC50 was > 6.48 µM (inactive).
As to `CC1=C/C(=N\N=C2\NC(=O)C(CC(=O)Nc3ccc(C(=O)O)cc3)S2)CC(C)(C)C1` (stereo unspecified), the IC50 was > 6.48 µM (inactive).
With `O=C(OCN1C(=O)c2ccccc2C1=O)c1cc2c(s1)CCC2`, the IC50 is > 7.13 µM (inactive).
As for `c1coc(CNc2ccc3ncc(-c4ccco4)n3n2)c1`, the IC50 is > 6.48 µM (inactive).
Turning to `O=C1N[C@@H](Cc2ccccc2)C(=O)N2CCN(C(=O)NCc3ccccc3)C[C@H]12`, the IC50 was > 6.48 µM (inactive).
Regarding `O=C(O)CSc1cc(Cl)c2nonc2c1[N+](=O)[O-]`, the IC50 was 4.2 µM.
To `CCOC(=O)C1C2NC(=S)N(c3cccc(Cl)c3)C1(C)Oc1c(OC)cccc12` (stereo unspecified) belongs > 5.09 µM (inactive); to `CCCOc1ccc(N)cc1N`, > 6.22 µM (inactive); to `Cc1noc(C2CN(C(=O)c3ccc(-n4cccc4)cc3)C2)n1`, > 6.48 µM (inactive).
To `N#CC(C#N)=C(N)/C(C#N)=C/c1ccc([N+](=O)[O-])o1` belongs 4.85 µM.
With `CCN(C(=O)C1COc2ccccc2O1)C12CC3CC(CC(C3)C1)C2` (stereo unspecified), the IC50 is > 6.83 µM (inactive).
To `CN(Cc1ccco1)S(=O)(=O)c1ccc2[nH]cc(C(=O)O)c(=O)c2c1` belongs > 6.48 µM (inactive); to `O=c1[nH]c(-c2ccco2)nc2sc3c(c12)CCCC3`, > 9.74 µM (inactive); to `O=C(OC1CCOC1=O)c1ccc(S(=O)(=O)NCc2ccco2)cc1` (stereo unspecified), > 7.1 µM (inactive).
As to `O=C(Nc1ccc(C(=O)Nc2ccc(C(=O)Nc3ccc(S(=O)(=O)O)c4cc(S(=O)(=O)O)cc(S(=O)(=O)O)c34)cc2)cc1)Nc1ccc(C(=O)Nc2ccc(C(=O)Nc3ccc(S(=O)(=O)O)c4cc(S(=O)(=O)O)cc(S(=O)(=O)O)c34)cc2)cc1`, the IC50 is > 6.48 µM (inactive).
On to `CN1C(=O)[C@H]2CN(C(=O)NCc3ccccc3)CCN2C(=O)[C@@H]1Cc1ccccc1`, for which the IC50 is > 6.48 µM (inactive).
The value for `N#C/C(=C\c1nn(-c2ccccc2)c(N)c1C#N)c1ccco1` was > 6.48 µM (inactive).
For `CN(C)/C=C/C=C/C(=O)c1cccc(C(=O)/C=C/C=C/N(C)C)c1O`, the IC50 was > 6.48 µM (inactive).
As to `O=C(O)c1c2c(nc3ccc(S(=O)(=O)N4CCC(C(=O)O)CC4)cc13)CCC2`, the IC50 is > 6.48 µM (inactive).
Consider `O=C(CCCCC1SCC2NC(=O)NC21)NC1(c2ccc(F)cc2)CCCC1` (stereo unspecified), for which the IC50 is > 6.48 µM (inactive).
For `Nc1ccc(C(=O)O)c(O)c1`, the IC50 was 1.96 µM.
To `CC(=O)NC1=NC(=O)/C(=C\c2ccc(Br)o2)S1` belongs > 6.48 µM (inactive); to `COCCCNC(=O)/C(C#N)=C/c1ccc(OCC(=O)O)c(OC)c1`, > 6.48 µM (inactive).
Regarding `CC(C)C[C@@H]1NC(=O)[C@H]2CN(C(=O)NC3CCCCC3)CCN2C1=O`, the IC50 is > 6.48 µM (inactive).
On to `O=C(O)c1cc(-c2ccco2)nc2ccccc12`, for which the IC50 is > 7.59 µM (inactive).
The value for `CC[C@@H]1NC(=O)[C@H]2CN(C(=O)NCc3ccccc3)CCN2C1=O` was > 6.48 µM (inactive); that for `Cc1ccc([N+](=O)[O-])cc1S(=O)(=O)Nc1ccc(Nc2ncccc2[N+](=O)[O-])cc1` was > 6.64 µM (inactive).
With `O=C(O)c1cccc(-n2cccc2/C=C\[N+](=O)[O-])c1`, the IC50 was > 6.48 µM (inactive).
To `O=C(/C=C/c1ccco1)NCCCCNC(=O)/C=C/c1ccco1` belongs > 6.48 µM (inactive); to `O=C(O)c1ccc(NC2OC(CO)C(O)C2O)cc1` (stereo unspecified), > 5.62 µM (inactive).
For `COc1cc(C)c2c(c1C=O)Oc1c(c(C)c(O)c3c1C(O)OC3=O)OC2=O` (stereo unspecified), the IC50 is 1.66 µM.
The value for `Cc1cc2c(c(=O)[nH]1)C(=O)O/C2=C\c1ccco1` was “inactive”; that for `CC(C)[C@@H]1NC(=O)[C@H]2CN(C(=O)NCc3ccccc3)CCN2C1=O` was > 6.48 µM (inactive); that for `CCOC(=O)C1CCCN(Cc2cccc(Br)c2)C1` (stereo unspecified) was > 6.48 µM (inactive).
Take `COc1cc(N2CCOCC2)ccc1Nc1cc(Nc2ccccc2-n2cccn2)c(C(F)(F)F)cn1`: the IC50 is > 6.48 µM (inactive).
To `N#C/C(=C(/O)COC(=O)c1cc2c(s1)CCC2)c1nc2ccccc2[nH]1` belongs > 7.1 µM (inactive); to `O=C(Nc1ccc(Cl)cc1Cl)N1CCN2C(=O)[C@@H]3CSCN3C(=O)[C@H]2C1`, > 6.48 µM (inactive); to `O=C(NCc1ccccc1)N1CCN2C(=O)[C@@H]3CSCN3C(=O)[C@H]2C1`, > 6.48 µM (inactive).
The value for `C/C(N)=C(/C#N)C(=O)COC(=O)c1c2c(nc3ccccc13)/C(=C/c1ccco1)CC2` was > 6.27 µM (inactive); that for `CC(C)(C)OC(=O)N1C(C(=O)O)CSC1c1cc2c(cc1[N+](=O)[O-])OCO2` (stereo unspecified) was > 6.48 µM (inactive).
The value for `O=C(O)c1cc(S(=O)(=O)Nc2ccc3cn[nH]c3c2)ccc1O` was > 7 µM (inactive); that for `O=C1N[C@@H](CC2CCCCC2)C(=O)N2CCN(C(=O)Nc3ccccc3)C[C@H]12` was > 6.48 µM (inactive).
With `CN(C)c1cc(NC(=O)CNC(C)(C)C)c(O)c2c1C[C@H]1C[C@H]3[C@@H](N(C)C)C(=O)C(C(N)=O)=C(O)[C@@]3(O)C(=O)C1=C2O`, the IC50 is > 6.48 µM (inactive).
As for `O=C(COC(=O)c1cc(-c2ccco2)nc2ccccc12)NC1CC1`, the IC50 is > 6.94 µM (inactive).
With `COc1cc(C(=O)N2CCN(Cc3ccccc3C)CC2)cc(OC)c1OC`, the IC50 was > 5.62 µM (inactive).
Consider `N[C@@H](C(=O)N[C@@H]1C(=O)N2C(C(=O)O)=C(CSC3CNNN3)CS[C@H]12)c1ccc(O)cc1` (stereo partly specified) (tested in a mixture with another compound), for which the IC50 is > 5.58 µM (inactive).
Take `CC(C)C[C@H]1C(=O)N2CCN(C(=O)NC3CCCCC3)C[C@@H]2C(=O)N1C`: the IC50 was > 6.48 µM (inactive).
To `N/C(=N\[N+](=O)[O-])N/N=C\c1ccc(-c2ccc(O)c(C(=O)O)c2)o1` belongs 4.95 µM.
For the compound `COc1ccc(CN2CCN(Cc3cccc(Cl)c3)CC2)cc1Br`, the IC50 was > 6.11 µM (inactive).
`Cc1c(NC(=S)NC(=O)/C=C/c2ccco2)cccc1C(=O)O`: the IC50 was 3.78 µM.
In the case of `CN(c1cccc(NS(=O)(=O)c2ccc([N+](=O)[O-])cc2)c1)S(C)(=O)=O`, the IC50 was > 6.48 µM (inactive).
As for `Cc1cc(OCCOCCN2CCNCC2)ccc1Cl`, the IC50 is > 6.48 µM (inactive).
To `CN(C)CCS(=O)c1cc(-c2cn[nH]c2)ccc1NC(=O)[C@@H]1Cc2cc(F)ccc2CN1` (stereo partly specified) belongs > 6.48 µM (inactive).
The value for `O=C(c1cccc(F)c1)N1CCN(Cc2ccncc2)CC1` was > 5.66 µM (inactive); that for `OCCNc1cc(-c2cccs2)ncn1` was > 6.01 µM (inactive).
The value for `COc1cc(OC)c(OC)cc1CN1CCN(Cc2ccc(C)cc2)CC1` was > 5.76 µM (inactive).
As to `Cc1cc(NC(=O)C2CCN(C(=O)c3ccc(-n4cccc4)cc3)CC2)no1`, the IC50 was > 6.48 µM (inactive).
As for `CNC(=O)COc1cc(-c2cn[nH]c2)ccc1NC(=O)C1COc2ccc(OC)cc2C1` (stereo unspecified), the IC50 was > 6.48 µM (inactive).
For `Cc1ccc(CCC(=O)Nc2ccc(-c3cn4c5c(nnc4n3)CCCC5)cc2)o1`, the IC50 was > 6.48 µM (inactive).
Regarding `O=C(CCCCC1SCC2NC(=O)NC21)NC1(c2ccc3c(c2)OCO3)CCCC1` (stereo unspecified), the IC50 was > 6.48 µM (inactive).
Consider `Cc1sc2nc(C)n3c(=O)n(CC(=O)NCc4ccco4)nc3c2c1C`, for which the IC50 is > 6.48 µM (inactive).
Consider `O=C(O)c1coc(CNC(=O)c2cocc2C(=O)O)c1`, for which the IC50 is > 6.48 µM (inactive).
To `COc1ccc2c(c1)CC(C(=O)Nc1ccc(-c3cn[nH]c3)cc1C(=O)N(C)OC)CO2` (stereo unspecified) belongs > 6.48 µM (inactive).
For the compound `Cc1cccc(OCC(=O)N2CCN(Cc3cccc(Br)c3)CC2)c1`, the IC50 was > 6.48 µM (inactive).
Regarding `NC(=O)Cn1cnc2sc3c(c2c1=O)CCC3`, the IC50 was > 6.48 µM (inactive).
To `NC(=O)COC(=O)/C=C/c1ccc(I)o1` belongs > 7.27 µM (inactive); to `COc1ccc2c(c1)CC(C(=O)Nc1ccc(-c3cn[nH]c3)cc1OCC(N)=O)CO2` (stereo unspecified), > 6.48 µM (inactive); to `COc1ccc(CN2CCN(Cc3ccccc3OC)CC2)cc1`, > 7.33 µM (inactive).
Take `CCN(CC)c1ncnc2c1ncn2[C@@H]1O[C@H](COP(=O)(O)OP(=O)(O)C(Br)(Br)P(=O)(O)O)C(O)[C@@H]1O` (stereo partly specified): the IC50 is > 6.48 µM (inactive).
Take `CN(C)CCS(=O)c1cc(-c2cn[nH]c2)ccc1NC(=O)[C@H]1Cc2cc(F)ccc2CN1` (stereo partly specified): the IC50 was > 6.48 µM (inactive).
Regarding `CC(Oc1ccc(O)cc1)(P(=O)(O)O)P(=O)(O)O`, the IC50 was > 6.48 µM (inactive).
`COc1ccc2c3c(cccc13)C(=O)N(C)C2=O`: the IC50 is > 6.48 µM (inactive).
On to `C/C(=N\Nc1ccc(S(=O)(=O)O)cc1)c1ccc([N+](=O)[O-])o1`, for which the IC50 was > 6.48 µM (inactive).
On to `O=C1N[C@@H](Cc2ccc(O)cc2)C(=O)N2CCN(C(=O)NC3CCCCC3)C[C@H]12`, for which the IC50 was > 6.48 µM (inactive).
For `COc1cccc(COC(=O)Nc2ccc(-c3cn[nH]c3)cc2N(C)CCN(C)C)c1`, the IC50 was > 6.48 µM (inactive).
